For 35 compounds, IC50 results are on record in patent US20250313563A1, “GLYCOGEN SYNTHASE KINASE 3 INHIBITORS AND USES THEREOF” (The Broad Institute, Inc., priority 2022, published 2025).

In test [1] the target is GSK3b (GST-full length GSK3b) (Homo sapiens (Human), UniProt P49841). Description: GSK3b TR-FRET kinase assay. Format: biochemical. Summed up:
(§1)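 1 nM GST-GSK3α/β + cpd, 30 min preinc; add 200 nM biotin-pS645 GS(631-650) peptide + ATP (α 4 μM / β 2 μM, or 1 mM); 100 min RT, 50 mM Tris pH 7.5, 20 mM MgCl2, 1% DMSO; EDTA stop; SA-d2/Tb-pSer641 Ab 60 min; 665/615 ratio → IC50.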
(In general: Time-resolved FRET reads energy transfer from a long-lived donor to a nearby acceptor.)

Test [2] addresses GSK3α (GST-full length GSK3α) (Homo sapiens (Human), UniProt P49840). Description: GSK3α TR-FRET kinase assay. Type of test: biochemical. Summed up: as §1
[3] abbreviates: 1 nM GSK3b, 2 μM ATP, 30 minute preincubation, geometric mean, read-out: GSK3-B TR-FRET BIOCHEMICAL (TR-FRET), GMean, IC50.
The mark [4] stands for this setting: 1 nM GSK3α, 4 μM ATP, 30 minute preincubation, geometric mean, read-out: GSK3-A TR-FRET BIOCHEMICAL (TR-FRET), GMean, IC50.
[5] abbreviates: 1 nM GSK3b, 2 μM ATP, 30 minute preincubation, Table 16, read-out: GSK3-B TR-FRET BIOCHEMICAL (TR-FRET).
Where [6] appears, read: GSK3-B (TR-FRET 1 mM ATP), GMean, IC50, 1 mM ATP, geometric mean.
Setting [7] is: 1 nM GSK3α, 4 μM ATP, 30 minute preincubation, Table 16, read-out: GSK3-A TR-FRET BIOCHEMICAL (TR-FRET).
The mark [8] stands for this setting: GSK3-A (TR-FRET 1 mM ATP), GMean, IC50, 1 mM ATP, geometric mean.
[9] abbreviates: 1 nM GSK3b, 2 μM ATP, 30 minute preincubation, read-out: GSK3-B TR-FRET BIOCHEMICAL (TR-FRET), IC50.
Setting [10] is: 1 nM GSK3α, 4 μM ATP, 30 minute preincubation, read-out: GSK3-A TR-FRET BIOCHEMICAL (TR-FRET), IC50.
Where [11] appears, read: read-out: GSK3-B (TR-FRET 1 mM ATP), GMean, IC50, 1 mM ATP, geometric mean.
[12] abbreviates: read-out: GSK3-A (TR-FRET 1 mM ATP), GMean, IC50, 1 mM ATP, geometric mean.
[13] abbreviates: 1 nM GSK3b, 2 μM ATP, 30 minute preincubation, Table 16, read-out: GSK3-B TR-FRET BIOCHEMICAL (TR-FRET), IC50.
The mark [14] stands for this setting: 1 nM GSK3α, 4 μM ATP, 30 minute preincubation, Table 16, read-out: GSK3-A TR-FRET BIOCHEMICAL (TR-FRET), IC50.

Like-named read-outs stand apart in the source and are kept apart here.

Sequence of GSK3α (GST-full length GSK3α) (P49840 whole entry): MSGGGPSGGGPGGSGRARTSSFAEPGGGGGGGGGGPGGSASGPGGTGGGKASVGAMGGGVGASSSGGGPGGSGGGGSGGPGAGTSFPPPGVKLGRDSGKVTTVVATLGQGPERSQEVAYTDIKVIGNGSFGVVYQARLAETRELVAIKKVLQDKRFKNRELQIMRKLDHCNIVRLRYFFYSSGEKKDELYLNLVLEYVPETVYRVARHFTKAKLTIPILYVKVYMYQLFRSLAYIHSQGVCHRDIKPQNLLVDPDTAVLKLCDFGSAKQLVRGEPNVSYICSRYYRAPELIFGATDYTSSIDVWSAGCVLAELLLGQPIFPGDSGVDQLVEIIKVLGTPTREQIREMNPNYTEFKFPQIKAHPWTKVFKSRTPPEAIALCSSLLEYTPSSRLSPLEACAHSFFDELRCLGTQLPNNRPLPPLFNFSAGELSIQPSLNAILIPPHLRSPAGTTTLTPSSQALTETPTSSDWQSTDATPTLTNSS
Sequence of GSK3b (GST-full length GSK3b) (P49841 whole entry): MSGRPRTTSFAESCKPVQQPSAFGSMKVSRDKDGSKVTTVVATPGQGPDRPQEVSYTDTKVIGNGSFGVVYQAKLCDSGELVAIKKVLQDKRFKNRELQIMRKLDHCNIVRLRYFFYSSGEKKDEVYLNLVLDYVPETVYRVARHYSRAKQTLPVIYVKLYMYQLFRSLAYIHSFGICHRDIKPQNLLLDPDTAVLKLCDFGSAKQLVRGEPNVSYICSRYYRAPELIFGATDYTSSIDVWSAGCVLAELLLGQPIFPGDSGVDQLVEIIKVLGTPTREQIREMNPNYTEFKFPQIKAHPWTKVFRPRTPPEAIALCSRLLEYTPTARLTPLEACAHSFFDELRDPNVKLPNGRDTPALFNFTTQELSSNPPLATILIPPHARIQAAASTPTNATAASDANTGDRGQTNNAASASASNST

For `CC1(C)CC(=O)C2=C(C1)Nc1n[nH]cc1[C@@]2(C)c1cc(C(F)(F)F)ccc1F` [Compound 816797], the IC50 in test [1] (setting [3]) is over 5000 nM; in test [2] (setting [4]), 1000 to 5000 nM.
Regarding `CC1(C)CC(=O)C2=C(C1)Nc1n[nH]cc1C21CCN(S(=O)(=O)c2cccc(OC(F)F)c2)CC1` [Compound 947242], the IC50 in test [1] (setting [5]) was at most 100 nM; in test [1] (setting [6]), 100 to 1000 nM; in test [2] (setting [7]), at most 100 nM; in test [2] (setting [8]), at most 100 nM.
`CCC1(c2cccc(-c3cn(C)nc3C)c2)C2=C(CC(C)(C)NC2=O)Nc2n[nH]c(C)c21` (stereo not drawn) [Compound 945460]: the IC50 in test [1] (setting [9]) and in test [2] (setting [10]) was at most 100 nM throughout.
As to `CCC1(c2cccc(-c3cc(OC)ncc3F)c2)C2=C(CC(C)(C)CC2=O)Nc2n[nH]cc21` (stereo not drawn) [Compound 944032], the IC50 is at most 100 nM in test [1] (setting [5]), 1000 to 5000 nM in test [1] (setting [11]), at most 100 nM in test [2] (setting [7]) and 100 to 1000 nM in test [2] (setting [12]).
On to `CC[C@]1(c2cccc(-c3ccncc3C)c2)C2=C(CC(C)(C)CC2=O)Nc2n[nH]c(C(F)(F)F)c21` [Compound 947324], for which the IC50 in test [1] (setting [5]), in test [1] (setting [11]), in test [2] (setting [7]) and in test [2] (setting [12]) was at most 100 nM each time.
As for `CC[C@]1(c2cccc(C(F)(F)F)c2)C2=C(CCN(c3cccc(C)c3)C2=O)Nc2n[nH]cc21` [Compound 949041], the IC50 in test [1] (setting [3]) was over 5000 nM; in test [2] (setting [4]) it was 1000 to 5000 nM.
For the compound `CC[C@]1(c2cccc(-c3ccncc3F)c2)C2=C(CC(C)(C)NC2=O)Nc2n[nH]cc21` [Compound 947869], the IC50 was at most 100 nM in test [1] (setting [3]), 1000 to 5000 nM in test [1] (setting [11]), at most 100 nM in test [2] (setting [4]) and at most 100 nM in test [2] (setting [12]).
In the case of `CC[C@@H]1C[C@]2(CO1)C1=C(CC(C)(C)CC1=O)Nc1n[nH]cc12` [Compound 913215], the values for the IC50 in test [1] (setting [5]) and in test [2] (setting [7]) were 1000 to 5000 nM and 100 to 1000 nM, respectively.
The corresponding values for `CCC1(c2cccc(-c3cc(C)ncc3OC)c2)C2=C(CC(C)(C)CC2=O)Nc2n[nH]cc21` (stereo not drawn) [Compound 945468] are 100 to 1000 nM and at most 100 nM.
On to `CCC1(c2cccc(-c3ccnc(OC)c3C)c2)C2=C(CC(C)(C)CC2=O)Nc2n[nH]cc21` (stereo not drawn) [Compound 932628], for which the IC50 is 100 to 1000 nM in test [1] (setting [13]) and at most 100 nM in test [2] (setting [14]).
The like results for `CC(=O)N1CCC2(C1)C1=C(CC(C)(C)CC1=O)Nc1n[nH]cc12` (stereo not drawn) [Compound 826763] were, in that order, 1000 to 5000 nM and 100 to 1000 nM.
As to `CC1(C)CC(=O)C2=C(C1)Nc1n[nH]cc1[C@]21CCOC(C)(C)C1` [Compound 924298], the IC50 in test [1] (setting [13]) and in test [2] (setting [14]) was 1000 to 5000 nM in each case.
Consider `CCC1(c2cccc(-c3ccnc(CCO)c3)c2)C2=C(CC(C)(C)CC2=O)Nc2n[nH]cc21` (stereo not drawn) [Compound 945992], for which the IC50 in test [1] (setting [5]) is 100 to 1000 nM; in test [2] (setting [7]), at most 100 nM.
With `CCC1(c2cccc(-c3cn(C)nc3C)c2)C2=C(CC(C)(C)CC2=O)Nc2n[nH]cc21` (stereo not drawn) [Compound 926840], the IC50 in test [1] (setting [13]) and in test [2] (setting [14]) was at most 100 nM each time.
For `CCC1(c2cccc(N3CCC3)c2)C2=C(CC(C)(C)CC2=O)Nc2n[nH]cc21` (stereo not drawn) [Compound 889631], the IC50 in test [1] (setting [13]) and in test [2] (setting [14]) was 100 to 1000 nM each time.
Take `CC1(C)CC(=O)C2=C(C1)Nc1n[nH]cc1C21COC2(CN(C(=O)C3(C)CC(F)C3)C2)C1` (stereo not drawn) [Compound 947271]: the IC50 in test [1] (setting [9]) was 100 to 1000 nM; in test [2] (setting [10]), at most 100 nM.
As to `CCC1(c2cccc(-c3c(C)nnn3C)c2)C2=C(CC(C)(C)C2=O)Nc2n[nH]cc21` (stereo not drawn) [Compound 950815], the IC50 in test [1] (setting [13]) lay in the range of 1000 to 5000 nM; in test [2] (setting [14]) it was 100 to 1000 nM.
Regarding `CC[C@]1(c2ccccc2)C2=C(Nc3n[nH]cc31)[C@H](C)C[C@@H](C)C2=O` [Compound 865201], the IC50 in test [1] (setting [3]) was 100 to 1000 nM; in test [2] (setting [4]), at most 100 nM.
For the compound `Cc1cc(C)cc(C(=O)N2CC3(C2)CC2(CO3)C3=C(CC(C)(C)CC3=O)Nc3n[nH]cc32)c1` (stereo not drawn) [Compound 948222], the results for the IC50 in test [1] (setting [9]) and in test [2] (setting [10]) were 1000 to 5000 nM and 100 to 1000 nM, respectively.
Take `CCC1(c2cccc(Oc3ncccn3)c2)C2=C(CC(C)(C)NC2=O)Nc2n[nH]c(F)c21` (stereo not drawn) [Compound 950615]: the IC50 is 100 to 1000 nM in test [1] (setting [13]) and at most 100 nM in test [2] (setting [14]).
`CCC1(c2cccc(C(F)(F)F)c2)C2=C(Nc3n[nH]cc31)C(C)NC2=O` (stereo not drawn) [Compound 917295]: the IC50 fell in the range of 1000 to 5000 nM in test [1] (setting [5]) and 100 to 1000 nM in test [2] (setting [7]).
For `CC[C@@]1(c2cccc(N(C)C(=O)c3ccn(C)n3)c2)C2=C(CC(C)(C)CC2=O)Nc2n[nH]cc21` [Compound 929455], the IC50 in test [1] (setting [13]) and in test [2] (setting [14]) was over 5000 nM throughout.
On to `CC[C@@]1(c2cccc(C(F)(F)F)c2)C2=C(C[C@@]3(CCNC3=O)CC2=O)Nc2n[nH]cc21` [Compound 950333], for which the IC50 in test [1] (setting [5]) was 100 to 1000 nM; in test [2] (setting [7]), at most 100 nM.
Consider `CCC1(c2cccc(N(C)c3ccncn3)c2)C2=C(CC(C)(C)CC2=O)Nc2n[nH]cc21` (stereo not drawn) [Compound 902970], for which the IC50 in test [1] (setting [13]) was 100 to 1000 nM; in test [2] (setting [14]), at most 100 nM.
With `CC1(C)CC(=O)C2=C(C1)Nc1n[nH]cc1[C@@]21CCCN(S(=O)(=O)C2CC2)CC1` [Compound 932639], the values for the IC50 in test [1] (setting [5]) and in test [2] (setting [7]) were 100 to 1000 nM and at most 100 nM, respectively.
For the compound `CC[C@@]1(c2cccc(-c3cc(C)nn3C)c2)C2=C(CC(C)(C)C2=O)Nc2n[nH]cc21` [Compound 950827], the IC50 in test [1] (setting [13]) and in test [2] (setting [14]) was over 5000 nM each time.
`COC(=O)C1(c2ccccc2)CC2(C1)C1=C(CC(C)(C)CC1=O)Nc1n[nH]cc12` (stereo not drawn) [Compound 942344]: the IC50 in test [1] (setting [5]) was 100 to 1000 nM; in test [2] (setting [7]), at most 100 nM.
As for `CC[C@]1(c2cccc(-c3ccncc3OC)c2)C2=C(CC(C)(C)CC2=O)Nc2n[nH]cc21` [Compound 945471], the IC50 in test [1] (setting [5]) was 1000 to 5000 nM; in test [1] (setting [11]), over 5000 nM; in test [2] (setting [7]), 1000 to 5000 nM; in test [2] (setting [12]), over 5000 nM.
For `CCC1(c2cccc(-c3ccnn3C)c2)C2=C(CC(C)(COC)NC2=O)Nc2n[nH]cc21` (stereo not drawn) [Compound 947905], the IC50 in test [1] (setting [3]) was 100 to 1000 nM; in test [2] (setting [4]), at most 100 nM.
Regarding `CCC1(c2cccc(N3CCCC3C)c2)C2=C(CC(C)(C)CC2=O)Nc2n[nH]cc21` (stereo not drawn) [Compound 918321], the IC50 in test [1] (setting [13]) and in test [2] (setting [14]) was at most 100 nM throughout.
`CC[C@]1(c2cccc(N3CCCCC3)c2)C2=C(CC(C)(C)CC2=O)Nc2n[nH]c(C(F)(F)F)c21` [Compound 816800]: the IC50 in test [1] (setting [3]), in test [1] (setting [11]), in test [2] (setting [4]) and in test [2] (setting [12]) was at most 100 nM each time.
Regarding `CC(C)Oc1ccc(S(=O)(=O)N2CCC3(CC2)C2=C(CC(C)(C)CC2=O)Nc2n[nH]cc23)cn1` [Compound 945676], the IC50 in test [1] (setting [5]) and in test [2] (setting [7]) was at most 100 nM each time.
Turning to `C[C@@H]1C[C@]2(CCN1S(C)(=O)=O)C1=C(CC(C)(C)CC1=O)Nc1n[nH]cc12` [Compound 918315], the IC50 in test [1] (setting [5]) and in test [2] (setting [7]) was 100 to 1000 nM throughout.
On to `CC[C@]1(c2ccccc2)C2=C(C[C@@]3(CCCOC3)CC2=O)Nc2n[nH]cc21` [Compound 816876], for which the IC50 in test [1] (setting [3]) and in test [2] (setting [4]) was over 5000 nM in each case.
Turning to `Cn1cc(S(=O)(=O)N2CCC3(CC2)C2=C(CC(C)(C)CC2=O)Nc2n[nH]cc23)cn1` [Compound 901467], the IC50 in test [1] (setting [5]) was at most 100 nM; in test [1] (setting [6]), 1000 to 5000 nM; in test [2] (setting [7]), at most 100 nM; in test [2] (setting [8]), 100 to 1000 nM.
